Experimental data reported in patent US8557767B2, “Synthetic apolipoprotein E mimicking polypeptides and methods of use” (UAB Research Foundation, priority 2007, dated 2013).

What was measured:
WHHL rabbits = assay: Single bolus i.v. administration in WHHL rabbits; type: in vivo, rabbit
Procedure: (§1) 100 μg of the ^125I-labelled peptide was mixed with 1 ml of plasma from 6 month old WHHL rabbit. After incubation for 1 h at room temperature, the plasma was subjected to CLiP analysis (66). Radioactivity in different fractions was determined and plotted on the CLiP profile. […] This improvement was associated with a reduction in 2 markers of oxidative stress.
Results observed in HepG2 cells indicate that peptide associates with apo B-containing plasma lipoproteins to incorporate positive charges on the lipoprotein surface. This enables the apo B-containing lipoproteins to interact with heparan sulphate proteoglycans (HSPGs). The effect of these peptides on the mode of reduction of plasma cholesterol levels in mouse models and the two rabbit models can be determined. In NZW rabbits fed a 1% cholesterol-diet, a reduction of plasma cholesterol is observed which lasts for 14 days after the peptide administration; whereas in the WHHL rabbits, the reduction is initially rapid and returns to original levels within 3 days. Since the WHHL rabbit model is LDL-receptor defective, the differential effects of the peptide in two models can be due to differences in the receptor-mediated clearance pathways of atherogenic lipoproteins. HepG2 cells, primary hepatocytes from apo E null and LDL-R null mice, and primary rabbit hepatocytes can be used to determine the molecular factors in the receptor-mediated clearance pathways of atherogenic lipoproteins.

[1] = test system: plasma LDL from WHHL rabbits; assay: Association of 125I-labelled peptide with WHHL rabbit plasma lipoproteins (CLiP); type: binding
Procedure: as §1

[2] = test system: C57BL/6J mice fed an atherogenic diet; assay: Plasma cholesterol after one-time i.v. administration in C57BL/6J mice fed an atherogenic diet; type: in vivo
apo E null mice = assay: Atherosclerosis inhibition in apo E null mice, retroorbital administration, en face lesion analysis; type: in vivo
Procedure: Extent of lesion is analyzed by en face preparation and staininf with Oil Red O.
Atherosclerosis inhibition studies in apo E null mice that develop atherosclerosis spontaneously were also performed. […] Lesion analysis was performed using the en face preparations. Sixteen week old mice would have well established lesions. […] Detailed studies on the mechanism of the inhibition of atherosclerosis are described below.

[3] = test system: MEF 1 cells with induced LDL receptors; conditions: cited from earlier work
[4] = 3 mg/kg; 6 weeks of 1% cholesterol diet, one month after administration; not significantly different from control
Excerpt: For these studies, NZW rabbits that respond to diet can be selected. All animals are fed a 1% cholesterol diet and their cholesterol values determined three days after the diet initiation. Twenty rabbits with similar cholesterol levels can be selected and changed back to a normal diet. After 15 days on a normal diet, cholesterol values can once again be determined to check if the values returned to normal. Animals whose cholesterol values have not returned to pre-diet levels can be monitored until they are normalized or removed from the study. Ten rabbits in each group are selected and simultaneous peptide administration and 1% diet initiation can follow. […] To study dose-response effects, smaller number of animals (five in each group can be administered three doses of peptide (5 mg/kg, 3 mg/kg and 1.5 mg/kg). After the initial experiments, the dose of the peptide can be decided. A solution of the peptide (sterile saline) can be injected through the ear vein, once a week for the duration of the study (based on previous experience, for 6 weeks). The study parameters include total cholesterol, lipoprotein levels, LOOH levels, PON activity in the plasma. At the end of six weeks, the rabbits are euthanized and histology assessed.

human VLDL = conditions: cited from earlier work
[5] = single bolus 15 mg/kg intravenous
[6] = peptide-associated VLDL, absence of apo E

Ac-LRKLRKRLLRDWLKAFYDKVAEKLKEAF-NH2 [Ac-hE-18A-NH2]
time for plasma cholesterol to return to original levels (WHHL rabbits; WHHL rabbits): ≤ 3 days
arterial endothelial function (WHHL rabbits; [5]): significantly improved
formation of superoxide anion in arteries (WHHL rabbits; [5]): significantly reduced
increase in HDL paraoxonase activity (WHHL rabbits; [5]): 5 fold
plasma lipid hydroperoxide content (WHHL rabbits; [5]): reduced significantly
plasma cholesterol levels at 18 h (WHHL rabbits; single bolus 15 mg/kg intravenous, reduced from 562±29 mg/dl): 287 ± 22 mg/dL
association with WHHL plasma lipoproteins ([1]; 100 ug 125I-labelled peptide in 1 ml plasma, 1 h room temperature): associates with LDL
LOOH content of peptide-treated WHHL plasma LDL ([1]; compared to plasma from untreated rabbits): reduced amounts of LOOH
time for which lower total cholesterol levels were observed vs control ([2]; 100 ug i.v. one time, continued atherogenic diet): ≥ 8 days
initial decrease of plasma cholesterol ([2]; 100 ug i.v., n=9): > 65%
decreased lesion compared to control group (apo E null mice; 50 ug/mouse retroorbital, 3 times weekly, four weeks, sixteen week old female apo E null mice, en face, p<0.001): 40%
loss of animals / visible injury (apo E null mice; 12 retroorbital administrations, 50 ug/mouse): no loss of animals and no visible injury to animals was observed
LDL internalization enhanced [3]: five
average body weight [4]: 4.8 ± 0.4 kg
average daily food intake [4]: 0.17 ± 0.03 kg
interaction with VLDL (human VLDL): displacement of apo E from VLDL
enhanced degradation of VLDL compared to VLDL alone (human VLDL; [6]): three
enhanced uptake of VLDL compared to VLDL alone (human VLDL; [6]): six
